The values that follow come from patent publication US5607922A, “1,5-anhydrohexitol nucleoside analogues” (Stichting Rega VZW, priority 1992, dated 1997).

Series [1] relates to herpes simplex virus type 1 (HSV-1) (KOS). As to the kind of experiment: microbe, parasite or virus in culture. In kind it is cell-based. Conditions: Human alphaherpesvirus 1, E6SM.
The subject of series [2] is herpes simplex virus 2 (HSV-2) (G). As to the kind of experiment: microbe, parasite or virus in culture. In kind it is cell-based. Conditions: Human alphaherpesvirus 2, E6SM.
Another series has as its system vaccinia virus (VV). The experiment in a line: microbe, parasite or virus in culture. It is filed as cell-based. The settings on record: Orthopoxvirus vaccinia, E6SM.
In series [3] the test system is Vesicular stomatitis virus. The experiment in a line: microbe, parasite or virus in culture. Conditions: E6SM, read-out: Minimum inhibitory concentration Vesicular stomatitis virus. In kind it is cell-based.
Another series in a line: in vitro. The settings on record: human, e6 sm cells, Minimum cytotoxic concentration.
In a further series the test system is herpes viruses. Conditions: in words; literature; cited from earlier work.
In the next series the test system is herpes simplex (1 and 2). As to the kind of experiment: Anti-herpes simplex (1 and 2) activity, statement in words. It is filed as cell-based, herpes simplex virus.
The mark [4] stands for this setting: Table I, E6 SM cells, required to reduce virus-induced cytopathogenesis by 50%, read-out: Minimum inhibiting concentration ED50 HSV-1 (KOS).
The mark [5] stands for this setting: read-out: Minimum inhibitory concentration Herpes simplex virus-1 (KOS).
Setting [6] is: Table I, E6 SM cells, required to reduce virus-induced cytopathogenesis by 50%, read-out: Minimum inhibiting concentration ED50 HSV-2 (G).
The mark [7] stands for this setting: read-out: Minimum inhibitory concentration Herpes simplex virus-2 (G).
The mark [8] stands for this setting: read-out: Minimum inhibitory concentration Vaccinia virus.
Setting [9] is: Table III, required to cause a microscopically detectable alteration of normal cell morphology.
Where [10] appears, read: read-out: Minimum inhibiting concentration ED50 VV.

Values after ≈ are worked out from the molar mass of the structure shown. Where two headings read alike, the source gives them in different places.

`NC(=O)c1ncn(C2O[C@H](CO)[C@@H](O)[C@H]2O)n1` (stereo partly drawn) [Ribavirin, 1-ribofuranosyl-3-carbamoyl-1,2,4-triazol]: the EC50 was 70 µg/mL (≈ 287 µM) in series [1] (setting [4]); 200 µg/mL (≈ 819 µM) in series [1] (setting [5]); 70 µg/mL (≈ 287 µM) in series [2] (setting [6]); > 400 µg/mL in series [2] (setting [7]); 70 µg/mL (≈ 287 µM) with vaccinia virus (VV) (setting [8]); 20 µg/mL (≈ 81.9 µM) in series [3]. Moreover, the MCC in “in vitro” and in “in vitro” (setting [9]) was > 400 µg/mL throughout.

Take `Nc1ncnc2c1ncn2C[C@H](O)CO` [(S)-DHPA, (S)-9-(2,3-dihydroxypropyl)-adenine]: the EC50 was 70 µg/mL (≈ 335 µM) in series [1] (setting [4]); > 200 µg/mL in series [1] (setting [5]); 300 µg/mL (≈ 1430 µM) in series [2] (setting [6]); > 200 µg/mL in series [2] (setting [7]); 20 µg/mL (≈ 95.6 µM) in the series on vaccinia virus (VV) (setting [8]); 20 µg/mL (≈ 95.6 µM) in series [3]. In addition, the MCC in “in vitro” is > 400 µg/mL; in the series “in vitro” (setting [9]), ≥ 200 µg/mL.

Take `O=c1[nH]c(=O)n([C@H]2C[C@H](O)[C@@H](CO)O2)cc1/C=C/Br` [BVDU, E-5-(2-bromovinyl)-2'-deoxyuridine]: the EC50 was 0.004 µg/mL (≈ 0.012 µM) in series [1] (setting [5]); 10 µg/mL (≈ 30 µM) in series [2] (setting [6]); > 200 µg/mL in series [2] (setting [7]); 0.2 µg/mL (≈ 0.6 µM) in the series with vaccinia virus (VV) (setting [10]); 0.7 µg/mL (≈ 2.1 µM) in the series with vaccinia virus (VV) (setting [8]); > 200 µg/mL in series [3]. The “anti-viral activity against herpes viruses” value in the series with herpes viruses is “dependent on a virus-specific thymidine kinase”. Moreover, the MCC in “in vitro” was > 400 µg/mL; in “in vitro” (setting [9]) it was ≥ 200 µg/mL.

Take `O=c1[nH]c(=O)n([C@H]2C[C@H](O)[C@@H](CO)O2)cc1I` [IDU, 5-iodo-2'-deoxyuridine]: the EC50 (in series [1] (setting [4]); in series [2] (setting [6]); in the series with vaccinia virus (VV) (setting [10])) was 0.2 µg/mL (≈ 0.565 µM) each time. Besides, the “anti-viral activity against herpes viruses” value with herpes viruses is on record as “dependent on a virus-specific thymidine kinase”. The MCC in “in vitro” was > 400 µg/mL.

`O=c1[nH]c(=O)n([C@@H]2CO[C@H](CO)[C@@H](O)C2)cc1I` [Compound 18, 1,5-Anhydro-2,3-dideoxy-2-(5-iodouracil-1-yl)-D-arabino-hexitol]: the EC50 in series [1] (setting [4]) turned out to be 0.07 µg/mL (≈ 0.19 µM); in series [2] (setting [6]) it was 0.07 µg/mL (≈ 0.19 µM); in the series on vaccinia virus (VV) (setting [10]) it was 150 µg/mL (≈ 407 µM). Moreover, the “anti-herpes simplex (1 and 2) activity” value with herpes simplex (1 and 2) is “especially advantageous anti-herpes simplex (1 and 2) activity”. Further, the MCC in the series “in vitro” was > 400 µg/mL.

With `Nc1nccc2c1ncn2[C@@H]1C[C@H](CO)[C@@H](O)[C@H]1O` (relative stereo) [C-c^3 Ado, carbocyl 3-deaza adenosine], the EC50 in series [1] (setting [4]) was > 400 µg/mL; in series [1] (setting [5]), > 200 µg/mL; in series [2] (setting [6]), 40 µg/mL (≈ 151 µM); in series [2] (setting [7]), > 200 µg/mL; in the series on vaccinia virus (VV) (setting [10]), 0.7 µg/mL (≈ 2.65 µM); with vaccinia virus (VV) (setting [8]) it was 0.2 µg/mL (≈ 0.757 µM). Further, the EC50 in series [3] amounted to 0.2 µg/mL (≈ 0.757 µM). For the same compound, the figures for the MCC in “in vitro” and in “in vitro” (setting [9]) were > 400 µg/mL and ≥ 200 µg/mL, respectively.

Regarding `Cc1cn([C@@H]2CO[C@H](CO)[C@@H](O)C2)c(=O)[nH]c1=O` [Compound 17, 1,5-Anhydro-2,3-dideoxy2-(thymin-1-yl)-D-arabinohexitol], the EC50 in series [1] (setting [4]) was 40 µg/mL (≈ 156 µM); in series [2] (setting [6]), 150 µg/mL (≈ 585 µM); in the series with vaccinia virus (VV) (setting [10]), > 200 µg/mL. For the same compound, the MCC in the series “in vitro” is > 400 µg/mL.

With `Nc1nc(O)c2ncn([C@@H]3CO[C@H](CO)[C@@H](O)C3)c2n1` [Compound 13, 1,5-Anhydro-2-(guanin-9-yl)-2,3-dideoxy-D-arabinohexitol], the values for the EC50 (in series [1] (setting [4]); in series [2] (setting [6]); with vaccinia virus (VV) (setting [10])) were 0.2 µg/mL (≈ 0.711 µM), 0.1 µg/mL (≈ 0.356 µM) and 2 µg/mL (≈ 7.11 µM), respectively. Moreover, the MCC in “in vitro” is > 400 µg/mL.

On to `Nc1ncnc2c1ncn2[C@@H]1CO[C@H](CO)[C@@H](O)C1` [Compound 10, 1,5-Anhydro-2-(adenin-9-yl) 2,3-dideoxy-D-arabinohexitol], for which the EC50 in series [1] (setting [4]) was determined as 7 µg/mL (≈ 26.4 µM); in series [2] (setting [6]) it was 7 µg/mL (≈ 26.4 µM); in the series on vaccinia virus (VV) (setting [10]) it was 20 µg/mL (≈ 75.4 µM). Also, the MCC in “in vitro” was > 400 µg/mL.

Take `CCc1cn([C@@H]2CO[C@H](CO)[C@@H](O)C2)c(=O)[nH]c1=O` [Compound 23, 1,5-Anhydro-2,3-dideoxy-2-(5-ethyluracil-1-yl)-D-arabinohexitol]: the EC50 is < 0.04 µg/mL in series [1] (setting [5]), 0.2 µg/mL (≈ 0.74 µM) in series [2] (setting [7]), > 200 µg/mL with vaccinia virus (VV) (setting [8]) and > 200 µg/mL in series [3]. Moreover, the “anti-herpes simplex (1 and 2) activity” value in the series with herpes simplex (1 and 2) is “especially advantageous anti-herpes simplex (1 and 2) activity”. Also, in the series “in vitro” (setting [9]), the MCC was > 200 µg/mL.

As to `Nc1ccn([C@@H]2CO[C@H](CO)[C@@H](O)C2)c(=O)n1` [Compound 20, 1,5-Anhydro-2-(cytosin-1-yl)-2,3-dideoxy-D-arabinohexitol], the results for the EC50 (in series [1] (setting [4]); in series [2] (setting [6]); in the series with vaccinia virus (VV) (setting [10])) were 0.7 µg/mL (≈ 2.9 µM), 0.04 µg/mL (≈ 0.166 µM) and 0.7 µg/mL (≈ 2.9 µM), respectively. The MCC in “in vitro” is > 400 µg/mL.
